Measured values from PMC6273899 (Molecules, 2016).
Converted amounts (≈) assume the structure as drawn. “And” between values parts separate entries of the source, which are not always exact repeats. Equal values may be shown once. Read-outs that look alike come from different tables or passages of the source. Square brackets hold non-standard residues; d marks the D form. Ends that are not written are not given here. Peptide text beside a SMILES is read from it.

What was measured:
[1] = 25% horse serum/RPMI medium (v/v), 1 mg/mL peptide, 37 °C up to 72 h, MALDI-TOF/MS
Procedure: (§2) Two different media were used to appraise the stability and degradation sites of peptides, trypsin, and horse serum, respectively. For the trypsin assay, 1 mg of trypsin (Sigma-Aldrich) with 1 mg of peptide were incubated in 1 mL PBS for 72 h. Whilst for horse serum, the medium was prepared with 25% horse serum/RPMI medium (v/v) and incubated at 37 °C for 15 min. Peptide stock solution was added into the serum medium to obtain a solution having a final concentration of 1 mg/mL and test samples were kept at 37 °C for 72 h. At different time points, 20 μL samples were transferred into 100 μL of 0.25% (v/v) TFA/water which caused reaction termination. For the serum-digestion, samples were kept at 4 °C and centrifuged at 13,000 rpm for 15 min and the supernatants were then analysed by MALDI-TOF/MS.

[2] = tested on: Staphylococcus aureus (NCTC 10788); assay type: cell-based
Procedure: (§1) The antimicrobial activity was evaluated by minimal inhibitory concentration (MIC) and minimum bactericidal concentration (MBC) assays using broth microdilution methods and in vitro assays against reference strains of microorganisms; a Gram-positive bacterium, a Gram-negative bacterium, and a yeast, respectively, Staphylococcus aureus (NCTC 10788), Escherichia coli (NCTC 10418), and Candida albicans (NCPF 1467). Briefly, the reference strains were incubated in Muller-Hinton Broth (MHB) until logarithmic phase growth was achieved which was assessed by the optical density (OD) of the culture at 550 nm. The cultures were subjected to dilution to obtain 1 × 10^6 colony-forming units (cfu)/mL for bacteria or to 5 × 10^5 cfu/ml for the yeast. Serial peptide dilutions and cultures were loaded into a 96-well microtiter plate obtaining suspensions containing 1–512 mg/L tested peptides. After incubating at 37 °C for 24 h, MIC values were determined as the lowest concentration which produced a similar OD value to the negative control (medium only). Then 10 μL of inhibited culture from each well was subcultured on Muller-Hinton Agar (MHA) and incubated for 24 h. The MBC values were defined as the minimum concentration which effected no growth.

[3] = tested on: Escherichia coli (NCTC 10418); assay type: cell-based
Procedure: as §1

[4] = tested on: Candida albicans (NCPF 1467); assay type: cell-based
Procedure: as §1

trypsin [5] = settings: 1 mg trypsin with 1 mg peptide in 1 mL PBS, MALDI-TOF/MS
Procedure: as §2

[6] = tested on: defibrinated horse erythrocytes; assay: Haemolysis assay; assay type: cell-based; settings: 2% (v/v) horse erythrocytes in PBS, 1 to 512 mg/L peptide, 37 °C 120 min, OD 550 nm; 100% = 1% Triton X-100
Procedure: The haemolytic activity of peptides against defibrinated horse erythrocytes (TCS Biosciences Ltd., Botolph Claydon, Buckingham, UK) was determined by comparing the degree of lysis after incubating tested peptides with prewashed red cell suspensions for 2 h. A 2% suspension (v/v) was formed with prewashed defibrinated horse erythrocytes and sodium phosphate-buffered saline (PBS). Peptides were incubated with this 2% suspension in a final concentration range from 1 to 512 mg/L and all the samples were kept at a constant 37 °C for 120 min. Negative controls and positive controls were PBS alone and PBS containing Triton X-100 (Sigma-Aldrich, St. Louis, MO, USA), respectively. The sample supernatants were used to assess the extent of haemolysis by measuring the OD value at 550 nm.

trypsin [7] = assay: 1 mg of trypsin (Sigma-Aldrich) with 1 mg of peptide in 1 mL PBS; settings: up to 72 h
[8] = 25% horse serum/RPMI medium (v/v); settings: 37 °C, up to 72 h
[9] = 10 μL of inhibited culture subcultured on Muller-Hinton Agar, 24 h, minimum concentration with no growth
[10] = broth microdilution, Muller-Hinton Broth, 1 × 10^6 cfu/mL, 1–512 mg/L peptide, 37 °C 24 h, OD read-out, NCTC 10788
[11] = broth microdilution, Muller-Hinton Broth, 1 × 10^6 cfu/mL, 1–512 mg/L peptide, 37 °C 24 h, OD read-out, NCTC 10418
[12] = broth microdilution, Muller-Hinton Broth, 5 × 10^5 cfu/ml, 1–512 mg/L peptide, 37 °C 24 h, OD read-out, NCPF 1467

Compound: CC[C@H](C)[C@H](NC(=O)[C@H](C)NC(=O)[C@@H](CCCCN)NC(=O)[C@@H]1CCCN1C(=O)[C@@H](NC(=O)[C@H](CC(C)C)NC(=O)[C@H](CO)NC(=O)[C@H](CC(C)C)NC(=O)[C@@H](N)Cc1ccccc1)[C@@H](C)CC)C(=O)N[C@H](CCCCN)C(=O)N[C@@H](C)C(=O)N[C@H](C(=O)NCC(=O)N[C@H](C(=O)N[C@H](CCCCN)C(=O)N[C@@H](C)C(=O)N[C@H](CCCCN)C(=O)N[C@H](CCCCN)C(=O)N[C@@H](Cc1ccccc1)C(N)=O)C(C)C)C(C)C [PS-PT2a] (H-FLSLIP[dK]AI[dK]AVGV[dK]A[dK][dK]F-NH2)
- stability in serum (in words) ([1]; pre-incubated 37 °C 15 min): relatively stable after 72 h
- MBC S. aureus [2, 9]: >512 µg/mL
- MIC S. aureus [2, 10]: >512 µg/mL
- MBC E. coli [3, 9]: >512 µg/mL
- MIC E. coli [3, 11]: >512 µg/mL
- MBC C. albicans [4, 9]: 256 µg/mL (≈ 124 µM)
- MIC C. albicans [4, 12]: 256 µg/mL (≈ 124 µM)
- Catabolites generated by incubation with trypsin (species detected, incl. intact 1–19) (trypsin [5]; up to 72 h): 1–19 FLSLIPKAIKAVGVKAKKF
- time stable in trypsin solution (trypsin [5]; up to 72 h): ≥ 48 h

Compound: CC[C@H](C)[C@H](NC(=O)[C@H](C)NC(=O)[C@@H](CCCCN)NC(=O)[C@@H]1CCCN1C(=O)[C@@H](NC(=O)[C@H](CC(C)C)NC(=O)[C@H](CO)NC(=O)[C@H](CC(C)C)NC(=O)[C@@H](N)Cc1ccccc1)[C@@H](C)CC)C(=O)N[C@@H](CCCCN)C(=O)N[C@@H](C)C(=O)N[C@H](C(=O)NCC(=O)N[C@H](C(=O)N[C@@H](CCCCN)C(=O)N[C@@H](C)C(=O)N[C@@H](CCCCN)C(=O)N[C@@H](CCCCN)C(=O)N[C@@H](Cc1ccccc1)C(N)=O)C(C)C)C(C)C [PS-PT2b] (H-FLSLIP[dK]AIKAVGVKAKKF-NH2)
- Catabolites generated by incubation with serum (species detected, incl. intact 1–19) [1]: 1–17 […] and 1–19 FLSLIPKAIKAVGVKAKKF
- incubation time in serum after which fragments 1–15, 1–14 and 1–17 were observed [1]: > 48 h
- stability in serum (in words) ([1]; pre-incubated 37 °C 15 min): strong stability
- MBC S. aureus [2, 9]: 512 µg/mL (≈ 249 µM)
- MIC S. aureus [2, 10]: 256 µg/mL (≈ 124 µM)
- MBC E. coli [3, 9]: 256 µg/mL (≈ 124 µM)
- MIC E. coli [3, 11]: 256 µg/mL (≈ 124 µM)
- MBC C. albicans [4, 9]: 64 µg/mL (≈ 31.1 µM)
- MIC C. albicans [4, 12]: 32 µg/mL (≈ 15.6 µM)
- degradation by trypsin (in words) (trypsin [5]; up to 72 h): hydrolytically-degraded after a 30 s incubation
- scissile site with trypsin (trypsin [5]): Lys^10-Ala^11

Compound: FLSLIPHAIKAVGVHAKHF-NH2 [PS-PT1]
- MBC S. aureus ([2]; NCTC 10788, 24 h): 256 µg/mL
- MIC S. aureus ([2]; NCTC 10788, 24 h): 128 µg/mL
- MBC E. coli ([3]; NCTC 10418, 24 h): >512 µg/mL
- MIC E. coli ([3]; NCTC 10418, 24 h): 512 µg/mL
- MBC C. albicans ([4]; NCPF 1467, 24 h): 256 µg/mL
- MIC C. albicans ([4]; NCPF 1467, 24 h): 128 µg/mL

Compound: FLSLIPHAINAVGVHAKHF-NH2 [PS-PT]
- MBC S. aureus ([2]; NCTC 10788, 24 h): >512 µg/mL
- MIC S. aureus ([2]; NCTC 10788, 24 h): 512 µg/mL
- MBC E. coli ([3]; NCTC 10418, 24 h): >512 µg/mL
- MIC E. coli ([3]; NCTC 10418, 24 h): >512 µg/mL
- MBC C. albicans ([4]; NCPF 1467, 24 h): >512 µg/mL
- MIC C. albicans ([4]; NCPF 1467, 24 h): 512 µg/mL

Compound: FLSLIPKAIKAVGVKAKKF-NH2 [PS-PT2] [listing 1 of 2 here]
- time after which peptide was completely degraded in serum ([1]; pre-incubated 37 °C 15 min): ≤ 30 min
- haemolytic effect (in words) [6]: negligible haemolytic effects
- MBC S. aureus [2, 9]: 64 µg/mL
- MIC S. aureus [2, 10]: 64 µg/mL
- MBC E. coli [3, 9]: >512 µg/mL
- MIC E. coli [3, 11]: 512 µg/mL
- MBC C. albicans [4, 9]: 32 µg/mL
- MIC C. albicans [4, 12]: 16 µg/mL
- time in which the original peptide was completely cleaved by trypsin (trypsin [5]; up to 72 h): ≤ 30 s
- scissile site with trypsin (trypsin [5]): Lys^7-Ala^8

Compound: FLSLIPKAIKAVGVKAKKF-NH2 [PS-PT2] [listing 2 of 2 here]
- cleaved bond (trypsin [7]): Lys7-Ala8, major, 30 s
- fragment found (trypsin [7]): 1–17 FLSLIPKAIKAVGVKAK, 4 min
- cleaved bond [8]: Lys7-Ala8, major
- fragment found [8]: 1–16 fragment (FLSLIPKAIKAVGVKA-), minor, 1 min

Compound: FLSLIPKAIKAVGVKAKKF-NH2 [PS-PT2a]
- not cleaved (trypsin [7]): stable in trypsin solution for up to 48 h
- fragment found [8]: 2–7 fragments (LSLIPK), minor, 4 h

Compound: FLSLIPKAIKAVGVKAKKF-NH2 [PS-PT2b]
- cleaved bond (trypsin [7]): Lys10-Ala11, 30 s
- fragment found [8]: 1–17 (FLSLIPKAIKAVGVKAK), >48 h
